These are literature values, as cited in PMC12326358, “Effect of Quantitative Structural Properties and Drug Formulation in Four Cannabinoids (Cannabidiol, Cannabigerol, Cannabichromene, and Cannabinol) on Their Lymphatic Transport after Enteral Administration in Rats” (Molecular Pharmaceutics, 2025).

Structures are written as SMILES.

The conditions of series [1]: cited from earlier work.
For series [2] the following is noted: cited from earlier work; for log P: ref literature.
For series [3] the following is noted: Beagle dogs, formulation with drug dispersed in small lipid droplets; cited from earlier work.

`COc1nc(C(Cl)(Cl)Cl)c(Cl)c(OC)c1Cl` [penclomedine]: the partitioning into lymph entry in series [1] is on record as “very limited partitioning into lymph”. Further, in series [2], the “solubility in long-chain triglycerides” value is over 50 mg/g and the “log P” value is reported as over 5.
With `CC(C)(C)c1cc(C(C)(C)C)c(NC(=O)c2c[nH]c3ccccc3c2=O)cc1O` [ivacaftor, reference compound], the bioavailability increase in series [3] is 7 fold.
Regarding `CCCCCCCCCCC(=O)O[C@H]1CC[C@H]2[C@@H]3CCC4=CC(=O)CC[C@]4(C)[C@H]3CC[C@]12C` [testosterone undecanoate], in series [1] (drug with prominent first-pass metabolism in the liver, ref literature), the FRL is 98.5%. Further, the “log P” value in series [2] is 6.7.
